Structures can show the parent of a compound that is named as a salt.
How the values were obtained:
[1] = cited from earlier work
[2] = test system: patient-derived xenograft (PDX) models; test: Patient-derived xenograft (PDX) models, tumor growth inhibition; assay type: in vivo, mouse; details: 20 PDX models, p=0.01
Excerpt: An alternative to an endogenous mouse models for capturing effects of the tumor environment are patient-derived xenograft (PDX) models. […] At the cellular level, PDX models also preserve the intra-tumoral heterogeneity, as well as the molecular characteristics of the original cancer, including copy number variants, single-nucleotide polymorphisms, and gene expression profiles (Choi et al., 2014; DeRose et al., 2011). […] When patient-derived xenograft PDX models were used to assess whether YAP activation sensitizes solid tumors to gemcitabine significant effects were found. The studies were performed in the following manner: Tumor fragments (around 64 mm^3) were implanted into the flanks of recipient mice and tumor dimensions recorded with digital calipers. Once tumor implants reached a volume of approximately 200 mm3, dosing with gemcitabine (or vehicle control) began. At the completion of the study completion, the percent tumor growth inhibition (% TGI) was calculated for gemcitabine (G) and the vehicle control (C) using initial (i) and final (f) tumor measurements by the formula: % TGI=[1−(Gf−Gi)/(Cf−Ci)]x100.
Patient-derived xenograft (PDX) models. PDX models were established by Champions Oncology (Baltimore, Md.) as described previously (Khor et al., 2015). Drug response to 20 PDX models was obtained from Champions TumorGraft® Database (available on the world wide web at database.championsoncology.com/).
Immunohistochemistry. Human primary tumor tissue slides were obtained from Champions Oncology (Baltimore, Md.). Immunohistochemistry using anti YAP1 antibody (Abcam Cat # ab52771) was performed as previously described (Shi et al., 1999). For negative controls, primary antibody was omitted. The intensity of YAP staining was assessed by an independent pathologist using a four-grade scale: “0” is negative. “0.5” is borderline staining with no significance. “1” is weak staining. “1.5” is weak staining with foci of moderate staining. “2” is moderate staining. […] YAP scoring index was calculated based on staining intensity * % of positive target cells.

Miapaca2-GFP xenografts = test: Mouse xenograft, Miapaca2-GFP; assay type: in vivo; details: i.p., alternate days for two weeks
Description: To assess the gemcitabine response to Hippo pathway inactivation in tumors a mouse xenograft model of pancreatic carcinoma cells and patient-derived xenograft (PDX) models from a variety of solid tumors including human cancers from non-small cell lung, esophagus, breast, mesothelium, ovary, colon, head and neck, sarcoma, and cholangiocarcinoma were used (FIG. 30). In mouse xenograft studies, two human pancreatic cancer cell lines (Miapac2 and Panc02.13) expressing GFP or YAPS6A were injected into athymic mice. Both parental or GFP expressing cells grew rapidly, producing palpable tumors in 5-10 days. When the tumors were ˜200 mm^3 (as measured using a caliper), mice were randomized into treatment and control groups. The […] received i.p. saline injections on alternate days for two weeks, and the latter received gemcitabine (20 mg/kg in Miapaca2-YAPS6A and 50 mg/Kg in Panc02.13-YAPS6A cohorts).
Tumorigenicity in Nude Mice. All in vivo experiments were performed using 6-week-old to 8-week-old athymic nude mice. Mice were maintained in laminar flow rooms with constant temperature and humidity. Miapaca2 or Panc02.13 cells were inoculated subcutaneously (s.c.) into each flank of the mice. […] Tumor volumes (V) were calculated using the formula: V=AB2/2 (A, axial diameter; B, rotational diameter). […]

H2052 (LATS2) cells = test: Gemcitabine and dFdU efflux by LC-MS/MS, H2052 cells; assay type: in vitro ADME; details: higher in H2052 (LATS2)
Excerpt: Are defects in the Hippo pathway the major cause of gemcitabine sensitivity? […] Restoring the levels of LATS2 in H2052 cells caused an increase in the mRNA and proteins levels of ABCG2 and CDA (FIGS. 23C, 36A-36M).

[3] = test system: Panc02.13 cells expressing the YAPS6A mutant; test: 3D spheroid growth assay, Panc02.13 cells expressing YAPS6A; assay type: cell-based, human; details: YAP activity increased
[4] = test system: Panc02.13 cells expressing YAPS6A; test: Gemcitabine and dFdU efflux by LC-MS/MS, Panc02.13 YAPS6A vs GFP; assay type: in vitro ADME, human; details: less efflux in YAPS6A (Hippo-OFF), p<0.05
Excerpt: It was considered whether the Hippo pathway might affect the efflux of gemcitabine and/or its metabolites. To assess directly gemcitabine efflux in conditioned media of pancreatic cancer cells both radiolabeled gemcitabine and LC-MS/MS-based methods were used. Panc02.13 cells grown in highly crowded conditions (Hippo-ON) pumped out 2-3-fold more radiolabeled gemcitabine (counts per μg protein) compared with cells grown in less crowded conditions (Hippo-OFF) (FIG. 22A). Another pathway of inactivation and export is the enzymatic conversion of gemcitabine to a uracil derivative (2′,2′-difluorodeoxyuridine, dFdU) by deamination catalyzed by cytidine deaminase (CDA)(Veltkamp et al., 2008). The efflux of gemcitabine and its deaminated metabolite, dFdU was measured by LC-MS/MS (24) in Panc02.13 cells expressing YAPS6A or vector control after gemcitabine treatment (FIG. 22B).

Nc1ccn([C@@H]2O[C@H](CO)[C@@H](O)C2(F)F)c(=O)n1 [Gemcitabine, Gemcitabine hydrochloride]
Patients without objective response to treatment ([1]; patients treated with gemcitabine): > 75%
Median overall survival ([1]; standard-of-care therapy, pancreatic cancer): six
Difference in % TGI, high vs low YAP activity tumors [2]: ~2 fold
Growth of xenografts (Miapaca2-GFP xenografts): no affect
Effluxed gemcitabine in media, H2052 (LATS2) vs parental H2052 (LATS2−/−) (H2052 (LATS2) cells): ~10 fold
Efficacy in inhibiting cell growth when the Hippo pathway was inhibited [3]: increased efficacy in inhibiting cell growth
Gemcitabine effluxed, YAPS6A vs GFP expressing cells [4]: 10 fold

Source: patent publication US20200216906A1, “METHODS AND COMPOSITIONS RELATING TO THE DIAGNOSIS AND TREATMENT OF CANCER” (PRESIDENT AND FELLOWS OF HARVARD COLLEGE, priority 2015, published 2020)
